Assays:
Assay type in all cases: biochemical
PDGFRβ kinase = target: T1, PDGFRβ kinase (Homo sapiens, UniProt P09619); assay: In vitro PDGFRβ kinase assay
T1 construct: purchased Invitrogen Inc. P3082
Method: (§1) In Vitro VEGFR2 and PDGFRP Kinase Assays
(§2) 2.5 μl of ADP Quest assay buffer (DiscoverX Inc., cat. #90-0071) containing 20 ng VEGFR2 kinase (Invitrogen Inc, cat. #PV3660) or 25 ng PDGFRβ kinase (Invitrogen Inc., cat. #P3082) is dispensed to wells of a 1536 multi-well, black solid plate. 60 nl of 100× concentration of test compound in DMSO is dispensed to the well by passive pin transfer and incubated for 10 minutes at room temperature (approx. 22° C.). 2.5 μl of ADP Quest assay buffer containing 0.25 μg of poly Glu:Tyr (4:1) substrate peptide (Upstate Inc., cat. #12-440) and 60 μM ATP is then dispensed and the kinase reaction allowed to incubate at 30° C. for 2 hours. The assay plates are sealed and maintained in a humidified environment. After the 2 hour incubation, 2 μl of ADP Quest assay reagent A, followed by 2 μl of assay reagent B, is added. After an additional 30 minute incubation at room temperature, fluorescence intensity is measured on a Molecular Devices Aquest multi-mode plate reader or other suitable plate reader (fluorescence excitation filter: 530/25 [Peak(nm)/FWHM passband(nm)]; dichroic beamsplitter: 561 nm longpass; fluorescence emission filter: 580/10 [Peak(nm)/FWHM passband(nm)]. The assay measures the conversion of a non-fluoresecent molecule to fluorescent resorufin, which correlates with kinase activity. Negative control activity is measured with DMSO lacking any test compound. The positive control is [N-(3-trifluoromethyl-4-chlorophenyl)-N′-(4-(2-methylcarbamoyl-pyridin-4-yl)oxyphenyl)urea], aka Bay 43-9006. Efficacy is measured as a percentage of positive control activity.

VEGFR2 kinase = target: T2, VEGFR2 kinase (Homo sapiens, UniProt P35968); assay: In vitro VEGFR2 kinase assay
T2 construct: purchased Invitrogen Inc PV3660
Method: as §1, §2

[1] = target: T3, human B-Raf protein kinase (Homo sapiens, UniProt P15056); assay: In vitro B-Raf/Mek1 composite kinase assay
T3 construct: GST (N); purchased Upstate Inc. 14-530 (B-Raf); 14-420 (Mek1)
Method: In Vitro B-Raf/Mek1 Composite Kinase Assay
2.5 μl of B-Raf kinase buffer (20 mM MOPS [pH 7.2], 25 mM sodium glycerophosphate, 2 mM EGTA [pH 8.0], 1 mM sodium orthovanadate, 1 mM dithiothreitol, 10 mM MgCl2, 0.03% Brij-35, 0.3 mg/ml bovine serum albumin) containing lng of recombinant, N-terminal GST-tagged human B-Raf protein kinase (Δ1-415, Upstate Inc., cat. #14-530) is dispensed to wells of a 1536 multi-well white solid plate. 60 nl of 100× concentration of test compound in DMSO is dispensed to the well by passive pin transfer and incubated for 15 minutes at room temperature (approx. 22° C.). […] The assay plates are sealed and maintained in a humidified environment. After 2 hours, 2.5 μl of PKLight protein kinase assay reagent (Cambrex, cat. #LT07-501) is dispensed. After an additional 5 minute incubation at room temperature, luminescence activity is measured on a Molecular Devices Analyst multi-mode plate reader or other suitable plate reader. Kinase inhibition results in less ATP depletion, and therefore increased luminescence signal. Negative control activity is measured with DMSO lacking any test compound. The positive control is [N-(3-trifluoromethyl-4-chlorophenyl)-N′-(4-(2-methylcarbamoyl-pyridin-4-yl)oxyphenyl)urea], aka Bay 43-9006. Efficacy is measured as a percentage of positive control activity.

T2 sequence (P35968 20-1356): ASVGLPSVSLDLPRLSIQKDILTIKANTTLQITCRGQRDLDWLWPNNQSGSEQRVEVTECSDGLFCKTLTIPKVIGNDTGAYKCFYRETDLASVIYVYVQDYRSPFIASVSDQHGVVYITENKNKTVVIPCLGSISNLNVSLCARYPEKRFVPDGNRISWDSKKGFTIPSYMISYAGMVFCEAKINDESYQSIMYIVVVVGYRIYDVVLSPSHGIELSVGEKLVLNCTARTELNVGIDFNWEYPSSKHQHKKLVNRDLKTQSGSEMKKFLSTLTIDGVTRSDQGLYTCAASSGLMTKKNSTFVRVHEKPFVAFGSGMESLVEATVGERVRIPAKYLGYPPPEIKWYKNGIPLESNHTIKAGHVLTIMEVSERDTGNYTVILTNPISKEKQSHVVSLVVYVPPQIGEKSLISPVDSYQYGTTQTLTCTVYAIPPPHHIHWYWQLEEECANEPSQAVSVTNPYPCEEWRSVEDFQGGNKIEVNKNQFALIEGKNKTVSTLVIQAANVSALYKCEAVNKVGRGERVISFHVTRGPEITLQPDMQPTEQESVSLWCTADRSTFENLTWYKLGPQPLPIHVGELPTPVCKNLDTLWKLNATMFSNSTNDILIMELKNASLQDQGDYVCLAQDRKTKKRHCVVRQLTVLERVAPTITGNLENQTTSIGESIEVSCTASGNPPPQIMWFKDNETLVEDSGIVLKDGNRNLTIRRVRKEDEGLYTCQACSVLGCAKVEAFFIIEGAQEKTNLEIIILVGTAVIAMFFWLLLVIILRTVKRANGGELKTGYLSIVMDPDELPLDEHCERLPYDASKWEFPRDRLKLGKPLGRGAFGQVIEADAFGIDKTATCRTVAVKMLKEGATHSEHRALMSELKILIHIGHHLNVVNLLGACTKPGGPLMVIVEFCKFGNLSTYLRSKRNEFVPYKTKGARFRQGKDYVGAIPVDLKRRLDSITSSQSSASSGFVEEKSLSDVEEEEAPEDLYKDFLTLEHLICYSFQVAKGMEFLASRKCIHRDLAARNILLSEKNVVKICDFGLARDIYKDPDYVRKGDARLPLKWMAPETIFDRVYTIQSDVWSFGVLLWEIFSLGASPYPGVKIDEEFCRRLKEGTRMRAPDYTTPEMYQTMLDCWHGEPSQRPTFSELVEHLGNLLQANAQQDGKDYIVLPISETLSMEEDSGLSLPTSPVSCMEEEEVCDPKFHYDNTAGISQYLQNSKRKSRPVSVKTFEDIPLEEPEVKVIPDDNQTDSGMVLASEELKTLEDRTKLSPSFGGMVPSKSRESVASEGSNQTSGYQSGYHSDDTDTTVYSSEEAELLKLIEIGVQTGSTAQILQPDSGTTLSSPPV
T3 sequence (P15056 416-766): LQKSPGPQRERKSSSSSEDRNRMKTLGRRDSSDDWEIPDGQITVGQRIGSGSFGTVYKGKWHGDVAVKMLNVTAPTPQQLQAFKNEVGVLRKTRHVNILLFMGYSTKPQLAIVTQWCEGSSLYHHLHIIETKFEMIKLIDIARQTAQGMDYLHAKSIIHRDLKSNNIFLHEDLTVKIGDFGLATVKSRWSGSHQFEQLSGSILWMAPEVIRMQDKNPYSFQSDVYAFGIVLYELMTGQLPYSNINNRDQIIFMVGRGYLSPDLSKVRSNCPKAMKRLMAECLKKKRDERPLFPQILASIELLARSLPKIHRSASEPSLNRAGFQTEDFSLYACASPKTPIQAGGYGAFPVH
T1 sequence (P09619 33-1106): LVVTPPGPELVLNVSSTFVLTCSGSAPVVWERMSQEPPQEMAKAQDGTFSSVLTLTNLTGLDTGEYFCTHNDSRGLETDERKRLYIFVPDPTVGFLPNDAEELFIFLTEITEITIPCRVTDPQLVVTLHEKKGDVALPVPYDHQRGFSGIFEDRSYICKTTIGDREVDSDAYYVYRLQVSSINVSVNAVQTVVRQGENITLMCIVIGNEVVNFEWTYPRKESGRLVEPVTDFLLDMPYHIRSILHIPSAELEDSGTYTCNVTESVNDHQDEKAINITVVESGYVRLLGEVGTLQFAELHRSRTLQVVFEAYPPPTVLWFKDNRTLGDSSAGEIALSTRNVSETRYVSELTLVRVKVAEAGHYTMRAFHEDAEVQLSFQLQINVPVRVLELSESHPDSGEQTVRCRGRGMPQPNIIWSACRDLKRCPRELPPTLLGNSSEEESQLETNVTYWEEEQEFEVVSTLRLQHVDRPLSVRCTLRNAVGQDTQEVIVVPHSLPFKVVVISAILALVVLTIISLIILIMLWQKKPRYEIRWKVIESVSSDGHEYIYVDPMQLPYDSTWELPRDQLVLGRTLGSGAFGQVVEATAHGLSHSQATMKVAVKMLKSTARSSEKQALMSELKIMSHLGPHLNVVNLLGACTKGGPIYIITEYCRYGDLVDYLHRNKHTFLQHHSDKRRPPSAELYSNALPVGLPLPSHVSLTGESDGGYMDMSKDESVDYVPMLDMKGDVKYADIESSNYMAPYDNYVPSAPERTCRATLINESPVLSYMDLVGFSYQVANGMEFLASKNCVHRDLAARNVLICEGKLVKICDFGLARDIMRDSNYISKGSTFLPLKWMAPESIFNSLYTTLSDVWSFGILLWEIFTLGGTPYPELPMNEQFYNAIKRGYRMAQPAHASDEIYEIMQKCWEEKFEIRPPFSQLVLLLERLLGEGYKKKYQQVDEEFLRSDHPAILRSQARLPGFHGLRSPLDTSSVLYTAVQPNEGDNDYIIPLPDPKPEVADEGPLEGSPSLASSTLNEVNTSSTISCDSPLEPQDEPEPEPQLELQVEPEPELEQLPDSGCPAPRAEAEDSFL

| IC50 (PDGFRβ kinase) [µM] | IC50 (VEGFR2 kinase) [µM] | IC50 [1] [µM] | SMILES |
| --- | --- | --- | --- |
| > 10 | > 10 | > 10 | CC(C#N)c1cccc(C(=O)Nc2cccc(Oc3ccnc(-c4cnn(C)c4)c3)c2)c1 (racemic) [Example 48, (±)-3-(1-Cyanoethyl)-N-(3-(2-(1-methyl-1H-pyrazol-4-yl)pyridin-4-yloxy)phenyl)benzamide] |
| > 10 | ≤ 10 | > 10 | O=C(Cc1ccc(F)c(C(F)(F)F)c1)Nc1cccc(Oc2ccnc(-c3nnco3)c2)c1 [Example 1, N-(3-(2-(1,3,4-Oxadiazol-2-yl)pyridin-4-yloxy)phenyl)-2-(4-fluoro-3-(trifluoromethyl)phenyl)acetamide] |
| > 10 | ≤ 10 | > 10 | CCOc1cc(C(=O)Nc2cccc(Oc3ccnc(-c4nnco4)c3)c2)cc(OCC)c1OCC [Example 2, N-(3-(2-(1,3,4-Oxadiazol-2-yl)pyridin-4-yloxy)phenyl)-3,4,5-triethoxybenzamide] |
| ≤ 10 | ≤ 10 | > 10 | O=C(Nc1cccc(Oc2ccnc(-c3nnco3)c2)c1)c1cccc(Oc2ccccc2)c1 [Example 4, N-(3-(2-(1,3,4-Oxadiazol-2-yl)pyridin-4-yloxy)phenyl)-3-phenoxybenzamide] |
| > 10 | ≤ 10 | > 10 | O=C(Nc1cccc(Oc2ccnc(-c3nnco3)c2)c1)c1ccc(Oc2ccccc2)cc1 [Example 5, N-(3-(2-(1,3,4-Oxadiazol-2-yl)pyridin-4-yloxy)phenyl)-4-phenoxybenzamide] |
| > 10 | ≤ 10 | > 10 | O=C(Nc1cccc(Oc2ccnc(-c3nnco3)c2)c1)c1ccc2c(c1)OCCCO2 [Example 6, N-(3-(2-(1,3,4-Oxadiazol-2-yl)pyridin-4-yloxy)phenyl)-3,4-dihydro-2H-benzo[b][1,4]dioxepine-7-carboxamide] |
| > 10 | > 10 | > 10 | CCOc1cc(OCC)cc(C(=O)Nc2cccc(Oc3ccnc(-c4nnco4)c3)c2)c1 [Example 7, N-(3-(2-(1,3,4-Oxadiazol-2-yl)pyridin-4-yloxy)phenyl)-3,5-diethoxybenzamide] |
| > 10 | ≤ 10 | > 10 | CCOc1ccc(C(=O)Nc2cccc(Oc3ccnc(-c4nnco4)c3)c2)cc1OCC [Example 8, N-(3-(2-(1,3,4-Oxadiazol-2-yl)pyridin-4-yloxy)phenyl)-3,4-diethoxybenzamide] |
| ≤ 10 | ≤ 10 | > 10 | COc1ccc(C(=O)Nc2cccc(Oc3ccnc(-c4nnco4)c3)c2)cc1OC1CCCC1 [Example 9, N-(3-(2-(1,3,4-Oxadiazol-2-yl)pyridin-4-yloxy)phenyl)-3-(cyclopentyloxy)-4-methoxybenzamide] |
| > 10 | ≤ 10 | > 10 | O=C(Nc1cccc(Oc2ccnc(-c3nnco3)c2)c1)c1cccc(N2CCCCC2)c1 [Example 11, N-[3-(2-[1,3,4]Oxadiazol-2-yl-pyridin-4-yloxy)-phenyl]-3-piperidin-1-yl-benzamide] |
| ≤ 10 | ≤ 10 | > 10 | O=C(Nc1cccc(Oc2ccnc(-c3nnco3)c2)c1)c1cccc(N2CCOCC2)c1 [Example 12, 3-Morpholin-4-yl-N-[3-(2-[1,3,4]oxadiazol-2-yl-pyridin-4-yloxy)-phenyl]-benzamide] |
| > 10 | > 10 | > 10 | Cn1cc(-c2cc(Oc3cccc(NC(=O)c4ccc(Cl)c(C(F)(F)F)c4)c3)ccn2)cn1 [Example 21, 4-Chloro-N-(3-(2-(1-methyl-1H-pyrazol-4-yl)pyridin-4-yloxy)phenyl)-3-(trifluoromethyl)benzamide] |

Continued, molecule first:

| SMILES | IC50 (PDGFRβ kinase) [µM] | IC50 (VEGFR2 kinase) [µM] | IC50 [1] [µM] |
| --- | --- | --- | --- |
| CCCCOc1cc(C(=O)Nc2cccc(Oc3ccnc(-c4nnco4)c3)c2)ccc1OC [Example 10, N-(3-(2-(1,3,4-Oxadiazol-2-yl)pyridin-4-yloxy)phenyl)-3-butoxy-4-methoxybenzamide] | ≤ 10 | ≤ 10 | > 10 |
| CCOc1cc(C(=O)Nc2cccc(Oc3ccnc(C(=O)NC)c3)c2)cc(OCC)c1OCC [Example 13, N-Methyl-4-(3-(3,4,5-triethoxybenzamido)phenoxy)picolinamide] | ≤ 10 | ≤ 10 | > 10 |
| CCOc1cc(OCC)cc(C(=O)Nc2cccc(Oc3ccnc(C(=O)NC)c3)c2)c1 [Example 14, 4-(3-(3,5-Diethoxybenzamido)phenoxy)-N-methylpicolinamide] | > 10 | > 10 | > 10 |
| CNC(=O)c1cc(Oc2cccc(NC(=O)c3ccc(OC)c(OC4CCCC4)c3)c2)ccn1 [Example 15, 4-(3-(3-(Cyclopentyloxy)-4-methoxybenzamido)phenoxy)-N-methylpicolinamide] | ≤ 10 | ≤ 10 | > 10 |
| CCOc1cc(OCC)cc(C(=O)Nc2cc(Oc3cc(-c4cnn(C)c4)ncn3)ccc2F)c1 [Example 17, 3,5-Diethoxy-N-(2-fluoro-5-(6-(1-methyl-1H-pyrazol-4-yl)pyrimidin-4-yloxy)phenyl)benzamide] | > 10 | > 10 | > 10 |
| CCOc1cc(OCC)cc(C(=O)Nc2cccc(Oc3cc(-c4nc(C(F)(F)F)c[nH]4)ncn3)c2)c1 [Example 18, 3,5-Diethoxy-N-(3-(6-(4-(trifluoromethyl)-1H-imidazol-2-yl)pyrimidin-4-yloxy)phenyl)benzamide] | ≤ 10 | ≤ 10 | > 10 |
| CCOc1cc(OCC)cc(C(=O)Nc2ccc(Oc3ccnc(-c4cnn(C)c4)c3)cc2)c1 [Example 20, 3,5-Diethoxy-N-(4-(2-(1-methyl-1H-pyrazol-4-yl)pyridin-4-yloxy)phenyl)benzamide] | ≤ 10 | ≤ 10 | ≤ 10 |
| Cn1cc(-c2cc(Oc3ccc(NC(=O)c4ccc(Cl)c(C(F)(F)F)c4)cc3)ccn2)cn1 [Example 22, 4-Chloro-N-(4-(2-(1-methyl-1H-pyrazol-4-yl)pyridin-4-yloxy)phenyl)-3-(trifluoromethyl)benzamide] | ≤ 10 | ≤ 10 | ≤ 10 |
| Cn1cc(-c2cc(Oc3cccc(NC(=O)c4ccc(OC(F)(F)F)cc4)c3)ncn2)cn1 [Example 23, N-(3-(6-(1-Methyl-1H-pyrazol-4-yl)pyrimidin-4-yloxy)phenyl)-4-(trifluoromethoxy)benzamide] | > 10 | > 10 | > 10 |
| CCOc1cc(OCC)cc(C(=O)Nc2cccc(Oc3cc(-c4cnn(C)c4)ncn3)c2)c1 [Example 24, 3,5-Diethoxy-N-(3-(6-(1-methyl-1H-pyrazol-4-yl)pyrimidin-4-yloxy)phenyl)benzamide] | ≤ 10 | > 10 | > 10 |
| Cn1cc(-c2cc(Oc3cccc(NC(=O)c4ccc(Cl)c(C(F)(F)F)c4)c3)ncn2)cn1 [Example 25, 4-Chloro-N-(3-(6-(1-methyl-1H-pyrazol-4-yl)pyrimidin-4-yloxy)phenyl)-3-(trifluoromethyl)benzamide] | > 10 | > 10 | > 10 |
| Cn1cc(-c2cc(Oc3ccc(F)c(NC(=O)c4ccc(Cl)c(C(F)(F)F)c4)c3)ncn2)cn1 [Example 26, 4-Chloro-N-(2-fluoro-5-(6-(1-methyl-1H-pyrazol-4-yl)pyrimidin-4-yloxy)phenyl)-3-(trifluoromethyl)benzamide] | > 10 | > 10 | > 10 |
| Cn1cc(-c2nccc(Oc3cccc(NC(=O)c4ccc(OC(F)(F)F)cc4)c3)n2)cn1 [Example 27, N-{3-[2-(1-Methyl-1H-pyrazol-4-yl)-pyrimidin-4-yloxy]-phenyl}-4-trifluoromethoxy-benzamide] | > 10 | > 10 | > 10 |

— patent US20070155746A1, “NOVEL SUBSTITUTED PYRIDINYLOXY AND PYRIMIDINYLOXY AMIDES USEFUL AS INHIBITORS OF PROTEIN KINASES” (KALYPSYS, INC., priority 2005, published 2007)
